Data on 6 molecules can be found in PubChem BioAssay (NCI).

Among the test systems are SK-MEL-5 melanoma; CAKI-1 renal; HCT-15 colon; LOX IMVI melanoma; UACC-62 melanoma; SF-295 CNS; RXF 393 renal; MDA-MB-231 breast; SK-OV-3 ovarian; HOP-92 NSCLC.
What all share (assay): inhibition of tumour cell growth, NCI panel, 48 h

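Compound exposure: 48 hours, 5 concentrations, 96-well plates. GI50 = concentration required for 50% inhibition of growth. TGI: concentration producing complete growth inhibition.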

For the molecule `Cc1nn(-c2ccccc2)c(C)c1/C=N/N1CCN(Cc2ccccc2)CC1`, the GI50 is 18.7 µM in the assay on SK-MEL-5 melanoma; above 100 µM in the assay on CAKI-1 renal; 30.4 µM in the assay with HCT-15 colon; 44 µM in the assay with LOX IMVI melanoma; 33.8 µM with UACC-62 melanoma; above 100 µM in the assay on SF-295 CNS. For the same molecule, the GI50 in the assay with RXF 393 renal is above 100 µM; in the assay on MDA-MB-231 breast, 22.6 µM. Also, the TGI is 36.7 µM with SK-MEL-5 melanoma; above 100 µM in the assay with CAKI-1 renal; above 100 µM in the assay with HCT-15 colon; above 100 µM in the assay on LOX IMVI melanoma; above 100 µM with UACC-62 melanoma; above 100 µM in the assay with SF-295 CNS. The TGI with RXF 393 renal is above 100 µM; in the assay with MDA-MB-231 breast it was 95.2 µM.

In the case of `COc1cc([N+](=O)[O-])c(OC)cc1-c1nc2n(c1/C(N)=N/C(=N)N)CCS2`, the GI50 in the assay with SK-MEL-5 melanoma is 75.3 µM; in the assay on HCT-15 colon, above 100 µM; in the assay on LOX IMVI melanoma, 89.1 µM; in the assay on UACC-62 melanoma, 75.5 µM; in the assay with SK-OV-3 ovarian, above 100 µM; in the assay with SF-295 CNS, 37.6 µM. Also, the GI50 is 42.2 µM with RXF 393 renal, 27 µM in the assay with MDA-MB-231 breast and 41.9 µM with HOP-92 NSCLC. Further, the TGI in the assay with SK-MEL-5 melanoma, with HCT-15 colon, with LOX IMVI melanoma, with UACC-62 melanoma, in the assay on SK-OV-3 ovarian and in the assay with SF-295 CNS was above 100 µM each time. The TGI with RXF 393 renal, with MDA-MB-231 breast and in the assay with HOP-92 NSCLC was above 100 µM each time.

As for `O=C(OC(CNc1c(C(=O)c2ccccc2)c(=O)n(Cc2ccccc2)c(=O)n1Cc1ccccc1)CN1CCCCC1)c1ccccc1` (centres undefined), the GI50 in the assay with SK-MEL-5 melanoma was 18.2 µM; with CAKI-1 renal, 18.3 µM; in the assay on HCT-15 colon, 13.5 µM; in the assay with LOX IMVI melanoma, 12.8 µM; in the assay on UACC-62 melanoma it was 20.7 µM; in the assay with SK-OV-3 ovarian, 37.6 µM. Also, the GI50 in the assay on SF-295 CNS was 22.1 µM; in the assay with RXF 393 renal, 14.7 µM; in the assay on MDA-MB-231 breast, 17.6 µM. Besides, the TGI in the assay with SK-MEL-5 melanoma is 42.5 µM; in the assay on CAKI-1 renal it was 35.5 µM; in the assay on HCT-15 colon, 26.3 µM; in the assay with LOX IMVI melanoma it was 25.4 µM; in the assay on UACC-62 melanoma, 42.4 µM; in the assay on SK-OV-3 ovarian, above 100 µM. The TGI with SF-295 CNS was determined as 42.5 µM; with RXF 393 renal it was 29.5 µM; with MDA-MB-231 breast, 32.4 µM.

For the molecule `Cc1cccc2c1ccc1c3occ(C)c3c(=O)oc21`, the GI50 with SK-MEL-5 melanoma was above 100 µM; with CAKI-1 renal it was above 100 µM; with HCT-15 colon, above 100 µM; in the assay with LOX IMVI melanoma, 80.3 µM; in the assay with UACC-62 melanoma, above 100 µM; in the assay with SK-OV-3 ovarian it was above 100 µM. For the same molecule, the GI50 in the assay with SF-295 CNS is above 100 µM; in the assay on MDA-MB-231 breast it was above 100 µM; in the assay on HOP-92 NSCLC, 49.9 µM. Besides, the TGI with SK-MEL-5 melanoma, with CAKI-1 renal, in the assay with HCT-15 colon, with LOX IMVI melanoma, with UACC-62 melanoma and in the assay with SK-OV-3 ovarian was above 100 µM each time. The TGI in the assay with SF-295 CNS, in the assay on MDA-MB-231 breast and with HOP-92 NSCLC was above 100 µM each time.

As to `CCCC(=O)Nc1ncnc2c1ncn2C1OC2COP(=O)(O)OC2C1OC(=O)CCC` (centres undefined), the GI50 in the assay with SK-MEL-5 melanoma, with CAKI-1 renal, in the assay with HCT-15 colon, with LOX IMVI melanoma, with UACC-62 melanoma and in the assay with SK-OV-3 ovarian was above 1000 µM in each case. Moreover, in the assay with SF-295 CNS, the GI50 is above 1000 µM. Also, the TGI in the assay with SK-MEL-5 melanoma, in the assay with CAKI-1 renal, in the assay with HCT-15 colon, in the assay with LOX IMVI melanoma, in the assay with UACC-62 melanoma and in the assay on SK-OV-3 ovarian was above 1000 µM each time. The TGI with SF-295 CNS, in the assay with MDA-MB-231 breast and with HOP-92 NSCLC was above 1000 µM each time.

Consider `O=C(O)CP(=O)(c1ccccc1)c1ccccc1.O=C(O)CP(=O)(c1ccccc1)c1ccccc1.[Cd]`, for which the GI50 is 2.19 µM in the assay with SK-MEL-5 melanoma; 22.7 µM in the assay on CAKI-1 renal; 9.21 µM in the assay on HCT-15 colon; 2.2 µM in the assay on UACC-62 melanoma; 20.2 µM in the assay on SK-OV-3 ovarian; 30.5 µM with SF-295 CNS. Besides, the GI50 in the assay on RXF 393 renal was 68.8 µM; in the assay with MDA-MB-231 breast, 15.7 µM; in the assay on HOP-92 NSCLC it was 18.4 µM. The TGI with SK-MEL-5 melanoma was 13.3 µM; in the assay with CAKI-1 renal, 38.9 µM; in the assay with HCT-15 colon it was 22.9 µM; with UACC-62 melanoma it was 6.31 µM; with SK-OV-3 ovarian it was 44.5 µM; in the assay on SF-295 CNS it was above 100 µM. Besides, the values for the TGI in the assay with RXF 393 renal, in the assay with MDA-MB-231 breast and in the assay on HOP-92 NSCLC were above 100 µM, 32.2 µM and 33.7 µM, respectively.
